The target of this assay is T1, NAD-dependent protein deacetylase sirtuin-2 (Homo sapiens, UniProt Q8IXJ6).
T1 sequence (Q8IXJ6 whole entry): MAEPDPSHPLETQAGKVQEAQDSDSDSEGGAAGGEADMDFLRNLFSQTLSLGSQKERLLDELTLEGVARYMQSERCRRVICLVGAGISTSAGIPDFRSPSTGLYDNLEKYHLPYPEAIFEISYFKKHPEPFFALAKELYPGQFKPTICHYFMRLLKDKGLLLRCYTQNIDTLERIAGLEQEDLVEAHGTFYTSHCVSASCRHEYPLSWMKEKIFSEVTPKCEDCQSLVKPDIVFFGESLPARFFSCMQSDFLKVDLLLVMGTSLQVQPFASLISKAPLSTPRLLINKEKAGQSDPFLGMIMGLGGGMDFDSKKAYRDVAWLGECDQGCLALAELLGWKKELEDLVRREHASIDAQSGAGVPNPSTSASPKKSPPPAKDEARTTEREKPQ
In words: Inhibition of human recombinant SIRT2.

On to `CCCCC(CC)COCCCNC(=O)CCC(C)(c1ccc(O)cc1)c1ccc(O)cc1` (stereo not drawn), for which the IC50 was 200 µM.
With `CC1(C)CCC(C)(C)c2cc(-c3csc(C4CCN(Cc5ccc(N(CCC#N)CCC#N)cc5)CC4)n3)ccc21`, the IC50 was found to be 136 µM.
The figure for `OCc1cccc(/C=N/c2cc(/N=C/c3cccc(CO)c3O)cc(C(F)(F)F)c2)c1O` is 91 µM.

The values are drawn from ChEMBL document CHEMBL1137363, “Discovering inhibitors of human sirtuin type 2: novel structural scaffolds” (J Med Chem, 2006).
